Data: patent publication US11047004B2, “Thiolated nucleotide analogues for nucleic acid synthesis” (LIFE TECHNOLOGIES CORPORATION, priority 2014, dated 2021)

Tests used:
[1] = free amino acid in solution; cited from earlier work
[2] = molecular target: calf intestinal phosphatase (CIP) (Bos taurus, UniProt P19111); assay: Phosphatase resistance: calf intestinal phosphatase (CIP) pre-treatment, then polymerase extension read-out; assay type: biochemical; details: 10 u/μL CIP, 37° C., 20 min, read-out by polymerase incorporation fluorescence (FIG. 4)
Sequence of calf intestinal phosphatase (CIP) (P19111 20-506 limits assumed): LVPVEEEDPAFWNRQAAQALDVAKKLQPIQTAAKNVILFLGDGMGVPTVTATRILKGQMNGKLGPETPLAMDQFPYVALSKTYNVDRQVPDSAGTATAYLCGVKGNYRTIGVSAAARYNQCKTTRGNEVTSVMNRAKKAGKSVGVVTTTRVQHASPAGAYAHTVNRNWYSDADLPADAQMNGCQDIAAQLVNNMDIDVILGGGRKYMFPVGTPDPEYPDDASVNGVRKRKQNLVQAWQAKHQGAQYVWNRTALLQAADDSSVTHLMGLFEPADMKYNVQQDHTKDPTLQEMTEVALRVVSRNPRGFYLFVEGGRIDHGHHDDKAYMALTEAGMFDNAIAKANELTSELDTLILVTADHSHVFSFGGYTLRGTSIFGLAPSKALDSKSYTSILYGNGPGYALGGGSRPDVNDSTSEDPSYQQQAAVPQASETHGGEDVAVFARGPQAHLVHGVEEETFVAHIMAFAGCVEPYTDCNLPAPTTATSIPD
Method: As an example of this resistant, representative results from an exemplary experiment are depicted in FIG. 4. […] Phosphatase-mediated hydrolysis is reflected as a non-increasing level of fluorescence, whereas phosphatase resistance is reflected as an increase in normalized fluorescence intensity.
Two solutions were prepared as follows in 20 mM Tris HCl, pH 7.5, 20 mM NaCl, 10 mM MgCl2: (A) 80 μM of TTP, and (B) 200 μM of γ-S-TTP.
To both solution was added 1.5 μL of 10 u/μL of calf intestinal phosphatase (CIP), and the solutions were incubated at 37° C. for 20 min. The phosphatase was then removed by passing the solutions through a 10,000 molecular weight cut-off ultrafiltration membrane. The resulting solutions were then used for the polymerase extension reactions.
(§1) A solution was prepared in the same buffer as above containing 250 nM of the hairpin oligonucleotide, 16 μM of a short oligonucleotide (5′-CCCCCC-3′, acting as a signal amplifier), and 2 nM of Bst polymerase. Then 50 μL aliquots of this solution were placed in individual wells of a microtiter plate. In separate wells of the same plate were placed 50 μL aliquots of the CIP-treated solutions from above, as well as identical solutions that had not been treated with CIP. The plate was equilibrated at 37° C. in a fluorescence microplate reader, and then the dNTP solutions were mixed with the solutions of polymerase and fluorogenic hairpin oligonucleotide. The polymerase catalyzed incorporation reactions were followed by recording the fluorescence intensity changes using 490 nm for excitation and 525 nm for the emission. When a polymerase reaction occurred, an increase in the fluorescence intensity over time was detected (see FIG. 4). There was no change in fluorescence when no nucleotide incorporation reaction occurred (see FIG. 4).
A treatment of synthetically prepared γ-S-TTP with CIP can be used to remove any traces of contaminating dTTP that may be present in the preparation of γ-S-TTP.

Bst polymerase = Bst polymerase (Geobacillus stearothermophilus, UniProt P52026); assay: Polymerase extension assay with fluorescein-labeled hairpin oligonucleotide (fluorescence increase on incorporation); assay type: biochemical, Bacillus stearothermophilus; details: 2 nM Bst polymerase, 250 nM hairpin oligonucleotide, 37° C., ex 490 nm / em 525 nm; for polymerase incorporation reaction (fluorescence increase), CIP-treated nucleotide solution: nucleotide pre-treated with CIP
Sequence of Bst polymerase (P52026 other isoform, or with tags, fused parts or gaps with the stated changes): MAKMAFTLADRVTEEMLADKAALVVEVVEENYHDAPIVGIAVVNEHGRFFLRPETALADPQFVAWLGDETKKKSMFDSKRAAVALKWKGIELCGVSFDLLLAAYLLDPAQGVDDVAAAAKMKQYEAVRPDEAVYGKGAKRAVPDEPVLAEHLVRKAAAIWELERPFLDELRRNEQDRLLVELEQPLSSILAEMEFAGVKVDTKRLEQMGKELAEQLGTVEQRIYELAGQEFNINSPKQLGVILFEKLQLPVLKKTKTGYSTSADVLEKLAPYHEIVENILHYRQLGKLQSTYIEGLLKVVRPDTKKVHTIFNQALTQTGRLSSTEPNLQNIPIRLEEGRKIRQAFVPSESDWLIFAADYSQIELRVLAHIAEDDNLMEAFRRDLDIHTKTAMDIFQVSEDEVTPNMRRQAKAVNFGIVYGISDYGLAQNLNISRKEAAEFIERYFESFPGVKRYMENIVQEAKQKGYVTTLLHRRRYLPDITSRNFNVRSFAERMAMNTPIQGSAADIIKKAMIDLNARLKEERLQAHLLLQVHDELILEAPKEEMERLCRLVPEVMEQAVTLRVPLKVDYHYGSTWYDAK
Description: For the polymerase extension assays, a fluorescein-labeled oligonucleotide substrate was designed, and used in an assay to detect nucleotide incorporation. The labeled oligonucleotide is a hairpin-type oligonucleotide with a T-fluorescein residue located at the third position from the 3′ end. The 5′ end of the labeled oligonucleotide is a single stranded sequence 3′-AGGGGGG-5′. Thus, the first nucleotide to be inserted by a polymerase onto the 3′ end of the substrate is a TTP. The 5′ and 3′ ends of the hairpin oligonucleotide is shown below. A fluorescein is attached to the T residue, which is underlined and bolded: • TGC 3′ • […] 5′ (SEQ ID NO:83)
Without wishing to be bound by theory, it is postulated that when the third base from the 3′ end is labeled with a fluorphore (in this case the labeled nucleotide is a T), and when the 3′ terminal base is a cytosine or guanosine, then the fluorphore is in a stacked position with the 3′ terminal base, resulting in quenching the fluorescence from the fluorphore. When a thymidine is incorporated at the terminal 3′ end (e.g., via polymerase-mediated nucleotide incorporation), the fluorphore is un-quenched. This assay can be performed with the hairpin molecule described herein, or with two annealed single-strands that mimic the linear ends of this hairpin molecule.
as §1, with “Then 50 μL aliquots of this solution were placed in individual wells of a microtiter plate. In separate wells of the same plate were placed 50 μL aliquots of the CIP-treated solutions from above, as well as identical solutions that had not been treated with CIP.” left out

N[C@@H](Cc1ccccc1)C(=O)O [Phenylalanine]
pKa α-amino [1]: 9.24
pKa α-carboxylic acid [1]: 2.58

Cc1cn([C@H]2C[C@H](O)[C@@H](COP(=O)(O)OP(=O)(O)OP(=O)(O)O)O2)c(=O)[nH]c1=O [TTP, thymidinyl-triphosphate, reference compound]
resistance to degradation by calf intestinal (alkaline) phosphatase [2]: not reflected
polymerase incorporation reaction (fluorescence increase), CIP-treated nucleotide solution (Bst polymerase): no incorporation reaction takes place

N[C@@H](CC(=O)O)C(=O)O [Aspartic Acid]
pKa α-amino [1]: 9.82

CC(C)[C@H](N)C(=O)O [Valine]
pKa α-carboxylic acid [1]: 2.29

CC[C@H](C)[C@H](N)C(=O)O [Isoleucine]
pKa α-amino [1]: 9.76

Cc1cn([C@H]2C[C@H](O)[C@@H](COP(=O)(O)OP(=O)(O)OP(O)(O)=S)O2)c(=O)[nH]c1=O [γ-S-TTP, γ-S-thymidinyl-triphosphate]
resistance to degradation by calf intestinal (alkaline) phosphatase [2]: resistant to the alkaline phosphatase activity
resistance to degradation by calf intestinal (alkaline) phosphatase ([2]; listed as gamma STTP): showed a resistance to phosphatase
polymerase incorporation reaction (fluorescence increase), non-treated nucleotide solution (Bst polymerase; nucleotide not treated with CIP): polymerase reactions can be detected
polymerase incorporation reaction (fluorescence increase), CIP-treated nucleotide solution (Bst polymerase): polymerase reactions can be detected

C[C@H](N)C(=O)O [Alanine]
pKa α-carboxylic acid [1]: 2.35
